The values that follow come from US7790738B2, “Methods of treating and preventing AIDS using of COX-2 inhibitors” (Lauras AS, priority 2000, dated 2010).

The structures appear in SMILES notation. “And” between values parts separate entries of the source, which are not always exact repeats. Equal values may be shown once. Read-outs that look alike come from different tables or passages of the source. Some results are limits rather than exact numbers.

Experiment [1] has as its system CD3+ T cells from HIV infected patients. Nature of the experiment: proliferation of HIV patient CD3+ T cells with cAMP antagonist added in vitro. Type of experiment: cell-based, human. The text has this:
Bars show mean values±SD from triplicate determinations.
8-CPT-cAMP was from Sigma (St. Louis, Mo.).

For experiment [2], the system named is lymph node mononuclear cells from MAIDS and control mice. As to the kind of experiment: anti-CD3 induced T cell proliferation in mixed unsorted lymph node cells, compound added in vitro. The experiment is classed as cell-based, mouse. On the procedure:
T cell activation was accomplished by cross-ligation of anti-CD3 (mAb 2C11; 4 μg/ml). […] Cells were cultured for 72 h during which [^3H] -thymidine was included for the last 4 h;
T cell activation was accomplished by cross-ligation of anti-CD3 (mAb 2C11; 4 μg/ml). […] Cells were cultured for 72 h during which [^3H ]-thymidine was included for the last 4 h;
The optimal concentration of antibody was titrated carefully in the initial setup and parallel experiments at several different dilutions of antibody was always performed. Proliferation was analyzed by incubating cells for 72 hours during which [^3H]-thymidine (0.4 μCi) was included for the last 4 hours and collected with a cell harvester (Skatron, Sterling, Va., USA) onto glass fiber filters. Incorporated precursor was counted in a scintillation analyzer (Tri-Carb, Packard, Meriden, Conn., USA). cAMP analogs, when used, were added 30 min prior to activation by addition of anti-CD3 antibodies.

The subject of experiment [3] is CD3+ T cells from MAIDS and control mice. As to the kind of experiment: TCR/CD3 stimulated proliferation of isolated T cells, [3H]-thymidine incorporation. The experiment is classed as cell-based, mouse. On the procedure: TCR/CD3 stimulated T cell proliferation was assessed with isolated T cells from MAIDS mice (A) and uninfected control mice (B). The effect of increasing concentrations of cAMP agonist (8-CPT-cAMP) on TCR/CD3 stimulated proliferation of CD3+ T cells isolated from MAIDS (open circles, dotted line) and control mice (filled circles and solid line) was examined separately in the same experiments (C). Mean values of triplicate determinations±SD are shown. See Table 4 for summarised data (n=11). Note: Scaling differs in A and B, whereas in C the TCR/CD3 induced proliferation in the absence of cAMP agonist is normalized to 100% for both MAIDS and control T cells;
Activation was achieved by subsequent addition of monodisperse magnetic beads coated with sheep anti-mouse IgG (Dynal, cat. no. 110.02) at a cell:bead ratio of 1:1 followed by addition of anti-CD3 (clone 2C11) at a final dilution of 4 μg/ml for the experiments shown. […] 8-CPT-cAMP was from Sigma (St. Louis, Mo.) and Sp- and Rp-8-Br-cAMPS were from BioLog Life Science Company (Bremen, Germany) and were all dissolved to concentrations of 4 to 10 mM in PBS and concentrations calculated using the extinction coefficients given by the manufacturer.

Experiment [4] has as its system MAIDS mice. Nature of the experiment: in vivo treatment of MAIDS mice, anti-CD3 induced T cell proliferation assessed in lymph node cells. Details: species or system mouse. As to conditions: for increase of T cell responses to anti-CD3 versus untreated mice: intraperitoneal in intralipid, 18 to 20 days, rofecoxib 3, celecoxib 20 mg/kg/day. On the procedure:
Subsequently, T cell proliferative responses were assessed in vitro in a mixed population of unsorted lymph node mononuclear cells from treated and untreated animals by [^3H]-thymidine incorporation in the absence (columns A) and presence of Rp-8-Br-cAMPS (0.5 or 1.0 mM, columns B and C, respectively). T cell activation was accomplished in all samples by cross-ligation of anti-CD3 (mAb 2C11; 4 μg/ml). Control represents T cell proliferation in uninfected mice. Mean values from triplicate determinations are shown. Cells were cultured for 72 h during which [^3H]-thymidine was included for the last 4 hours;
Subsequently, T cell proliferative responses were assessed in vitro as described for FIG. 16 but without Rp-Br-cAMPs. Control represents T cell proliferation in uninfected mice. Mean values from triplicate determinations are shown (black circles) along with 25 to 75% percentile (boxed areas) and median (line in box). Bars represent range; and
Mean values±standard error of the mean (s.e.m.) from each group are shown. […] Statistics were analysed by Mann-Whitney U test for comparison of two groups of animals and with Wilcoxon Matched Pairs Test for comparison of the same group with two different treatments.
MAIDS mice normally develop an immunoproliferation syndrome with enlarged lymph nodes and spleen.
Parenteral administration was accomplished by intraperitoneally injecting Cox-2 inhibitors formulated in intralipid.

Experiment [5] concerns the target COX-1 (Cavia porcellus, UniProt H0V9X9). As to conditions: read-out: COX-1 IC50; guinea pig macrophage model; Engelhart et al. 1995; cited from earlier work.
Experiment [6] deals with T1, COX-2 (Homo sapiens, UniProt P35354).
T1 sequence (P35354 18-604): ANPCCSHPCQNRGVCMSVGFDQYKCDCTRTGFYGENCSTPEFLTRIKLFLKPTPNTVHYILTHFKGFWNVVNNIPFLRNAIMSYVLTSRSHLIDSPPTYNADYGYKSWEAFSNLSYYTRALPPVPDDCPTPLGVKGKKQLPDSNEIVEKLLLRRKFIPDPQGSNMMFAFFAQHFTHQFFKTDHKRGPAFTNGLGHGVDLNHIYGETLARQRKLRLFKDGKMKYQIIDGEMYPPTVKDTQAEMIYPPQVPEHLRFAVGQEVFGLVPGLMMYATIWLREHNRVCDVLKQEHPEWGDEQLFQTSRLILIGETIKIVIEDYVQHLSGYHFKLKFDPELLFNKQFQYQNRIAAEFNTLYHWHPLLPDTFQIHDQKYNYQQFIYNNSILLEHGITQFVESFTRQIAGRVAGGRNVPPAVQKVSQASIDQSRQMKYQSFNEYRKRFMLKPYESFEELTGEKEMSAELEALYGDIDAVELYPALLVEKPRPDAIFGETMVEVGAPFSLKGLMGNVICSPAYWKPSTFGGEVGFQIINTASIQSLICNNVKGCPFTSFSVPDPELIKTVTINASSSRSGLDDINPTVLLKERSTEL
The following applies: cited from earlier work.

The target of experiment [7] is T2, COX-2 (Cavia porcellus, UniProt P70682).
T2 construct: NSAID's in guinea pig macrophage model; endogenous in cells; host or cells: guinea pig macrophages
T2 sequence (P70682 18-604): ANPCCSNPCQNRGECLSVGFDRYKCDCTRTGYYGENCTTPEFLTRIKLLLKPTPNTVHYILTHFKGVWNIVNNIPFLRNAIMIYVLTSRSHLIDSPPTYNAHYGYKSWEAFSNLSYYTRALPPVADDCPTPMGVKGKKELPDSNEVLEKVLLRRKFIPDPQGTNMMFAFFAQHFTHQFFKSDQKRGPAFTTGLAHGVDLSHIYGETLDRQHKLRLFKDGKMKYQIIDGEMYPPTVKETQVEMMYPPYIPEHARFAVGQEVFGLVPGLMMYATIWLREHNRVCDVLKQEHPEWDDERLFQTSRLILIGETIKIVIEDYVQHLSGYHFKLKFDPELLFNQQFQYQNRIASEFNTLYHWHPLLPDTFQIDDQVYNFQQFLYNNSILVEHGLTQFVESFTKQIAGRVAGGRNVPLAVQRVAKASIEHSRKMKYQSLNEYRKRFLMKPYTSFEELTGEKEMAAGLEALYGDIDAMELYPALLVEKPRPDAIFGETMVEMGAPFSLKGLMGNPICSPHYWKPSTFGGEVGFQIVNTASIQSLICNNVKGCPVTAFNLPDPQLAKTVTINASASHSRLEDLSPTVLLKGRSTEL
The following applies: guinea pig macrophage model; Engelhart et al. 1995; cited from earlier work.

The target of experiment [8] is COX-1 (Homo sapiens, UniProt P23219). As to conditions: recombinant human PGH synthesis; Laneuvill et al. 1994; cited from earlier work.
Sequence of COX-1 (Homo sapiens, UniProt P23219) (P23219 24-599): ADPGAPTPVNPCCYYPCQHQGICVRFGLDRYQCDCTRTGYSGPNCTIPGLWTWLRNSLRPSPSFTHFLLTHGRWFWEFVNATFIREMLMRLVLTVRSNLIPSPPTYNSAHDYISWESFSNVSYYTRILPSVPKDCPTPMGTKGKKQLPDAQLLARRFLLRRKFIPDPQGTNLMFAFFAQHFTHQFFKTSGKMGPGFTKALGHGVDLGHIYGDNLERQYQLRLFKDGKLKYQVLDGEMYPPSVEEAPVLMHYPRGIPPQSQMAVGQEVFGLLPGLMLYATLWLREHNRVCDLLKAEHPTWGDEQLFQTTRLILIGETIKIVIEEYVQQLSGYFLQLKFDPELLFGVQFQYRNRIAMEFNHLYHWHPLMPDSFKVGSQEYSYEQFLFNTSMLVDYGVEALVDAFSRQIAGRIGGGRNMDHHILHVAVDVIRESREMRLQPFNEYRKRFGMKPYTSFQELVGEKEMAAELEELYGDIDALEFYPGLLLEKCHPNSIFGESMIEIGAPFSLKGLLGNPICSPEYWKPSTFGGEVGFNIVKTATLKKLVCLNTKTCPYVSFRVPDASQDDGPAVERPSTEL
The target of experiment [9] is T1, COX-2. The following applies: cited from earlier work; for IC50: recombinant human PGH synthesis, Laneuvill et al. 1994, read-out: COX-2 IC50; for COX-2 selectivity COX-1/COX-2: ratio of IC50, recombinant human enzymes.
In experiment [10] the test system is MAIDS mice. As to the kind of experiment: in vivo treatment of MAIDS mice, lymphoproliferation (spleen and lymph node weight). Details: species or system mouse. The following applies: MAIDS mice 17 weeks post-infection, per os 7 days, 3 mg/kg/day.

Sequence of COX-1 (Cavia porcellus, UniProt H0V9X9) (H0V9X9 entry or part of it): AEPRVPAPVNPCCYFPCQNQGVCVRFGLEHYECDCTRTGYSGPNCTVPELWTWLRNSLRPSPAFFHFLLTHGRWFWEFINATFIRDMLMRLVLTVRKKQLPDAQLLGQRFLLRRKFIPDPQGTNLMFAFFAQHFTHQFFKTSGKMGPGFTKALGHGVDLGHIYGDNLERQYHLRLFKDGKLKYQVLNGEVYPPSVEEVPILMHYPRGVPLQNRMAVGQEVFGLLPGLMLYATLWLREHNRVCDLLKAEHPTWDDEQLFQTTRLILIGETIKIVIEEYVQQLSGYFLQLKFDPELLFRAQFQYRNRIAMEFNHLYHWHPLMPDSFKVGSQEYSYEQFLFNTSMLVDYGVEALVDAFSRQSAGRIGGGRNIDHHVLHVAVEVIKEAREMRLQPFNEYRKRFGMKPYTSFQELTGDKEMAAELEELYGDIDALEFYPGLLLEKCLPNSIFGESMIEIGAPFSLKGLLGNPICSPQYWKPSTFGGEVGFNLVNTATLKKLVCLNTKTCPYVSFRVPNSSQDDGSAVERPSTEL

For `Nc1ncnc2c1nc(Br)n2C1OC2COP(O)(=S)OC2C1O` (stereo not shown) [Rp-8-Br-cAMPS, Rp-8-Bromo-cAMP-phosphorothioate], in [1] (patient 2, 1 mM), the “effect on proliferation by antagonist in vitro” value was “no effect”. Moreover, in experiment [1] (patients 1 and 3, all time points, 1 mM), the “increase in proliferation by antagonist in vitro” value is on record as “approx. 2 fold”. Further, the “effect on anti-CD3 stimulated mixed lymph node cultures” value in [2] (MAIDS mice that received PBS in vivo, 0.5 mM) is recorded as “increased immune responses”. The “increase in TCR/CD3-induced proliferation” value in experiment [3] (MAIDS T cells, higher concentrations, FIG. 5A) was “more than 4 fold”. In addition, the “Increase in proliferation by Rp-8-Br-cAMPS” value in experiment [3] (MAIDS mice, median, n = 11) was 2.2 fold increase; in experiment [3] (control mice, median, n = 6), 1.1 fold increase; in experiment [3] (individual MAIDS mice 1-11, anti-CD3 induced proliferation), 14 fold increase and 37 fold increase (3×) and 10 fold increase and 19 fold increase (2×) and 22 fold increase and 42 fold increase and 40 fold increase and 24 fold increase. In experiment [3] (control T cells, FIG. 5B), the “effect on TCR/CD3-induced proliferation” value is “no stimulation was observed”.
For orientation: IC50 means the concentration that inhibits the measured activity by half. For `Cc1cnc(NC(=O)C2=C(O)c3ccccc3S(=O)(=O)N2C)s1` [Meloxicam, 4-hydroxy-2-methyl-N-(5-methyl-2-thiazolyl)-1,1-dioxide-2H-1,2-benzothiazine-3-carboxamide], in the experiment with MAIDS mice [4] (2.8 mg/kg/day, subcutaneous osmotic pump, 14 days, p<0.05), the “increase of T cell immune responses to anti-CD3 versus PBS-treated infected mice” value is “more than 10 fold”. At COX-1 [5], the IC50 was 0.00577 µM.
In the case of `CS(=O)(=O)Nc1cc2c(cc1Sc1ccc(F)cc1F)C(=O)CC2` [L-745337], the “Ratio COX-2/WHMA-COX-1 at IC80” value on COX-2 [6] (WHMA test, Warner et al.) is less than 0.01.
`CN1C(C(=O)Nc2ccccn2)=C(O)c2sccc2S1(=O)=O` [Tenoxicam]: the IC50 at COX-2 [7] was 0.322 µM; at COX-1 [5], 0.201 µM.
Turning to `Cc1ccc(-c2cc(C(F)(F)F)nn2-c2ccc(S(N)(=O)=O)cc2)cc1` [celecoxib, 4-(5-(4-methylphenyl)-3-(trifluoromethyl)-1H-pyrazol-1-yl)-benzenesulfonamide], the EC50 in [2] (Mus musculus, T-cell, read-out: concentration producing half-maximal effect (ED50) on T cell proliferation) was roughly 0.03 µM. In the experiment on MAIDS mice [4], the “increase of T cell responses to anti-CD3 versus untreated mice” value was “approximately 3 fold”.
On to `O=C(O)c1ccccc1O` [Salicyclic acid], for which the IC50 on COX-1 [8] and at COX-2 [9] was greater than 1000 µM each time.
With `CS(=O)(=O)Nc1ccc([N+](=O)[O-])cc1Oc1ccccc1` [nimesulide], the “Ratio COX-2/WHMA-COX-1 at IC80” value at COX-2 [6] is given as 0.17.
For `CC/C=C\C/C=C\C/C=C\C/C=C\C/C=C\C/C=C\CCC(=O)O` [DHA (22:6)], the IC50 at COX-1 [8] was 25.6 µM. On COX-2 [9], the “COX-2 selectivity COX-1/COX-2” value was 0.6 and the IC50 is 41 µM.
For the compound `O=C(c1ccccc1)c1ccc2n1CCC2C(=O)O` (stereo not shown) [Ketorolac tromethamine], the IC50 at COX-1 [8] was 31.5 µM. The “COX-2 selectivity COX-1/COX-2” value at COX-2 [9] is on record as 0.5.
`CS(=O)(=O)c1ccc(C2=C(c3ccccc3)C(=O)OC2)cc1` [rofecoxib]: the “increase of anti-CD3 induced proliferation” value in experiment [2] (cells from MAIDS mice 17 weeks post-infection, concentration-dependent, 1.9 to 500 nM) was “two- to three-fold”. In addition, the “Rp-8-Br-cAMPS effect on anti-CD3 induced proliferation after in vivo treatment” value in the experiment with MAIDS mice [4] (MAIDS mice treated per os one week) is given as “lost”. The “increase of T cell responses to anti-CD3 versus untreated mice” value in the experiment with MAIDS mice [4] is “approximately two-fold”. Further, in the experiment with MAIDS mice [10], the average spleen weight is 0.8 g and the “average weight of pooled lymph nodes” value turned out to be 0.3 g.
